Among the data in US10011609B2, “Heterocyclic compounds” (CADILA HEALTHCARE LIMITED, priority 2013, dated 2018) are EC50 values, retold here.

The term EC50 denotes the midpoint of the concentration-response curve.

The assay addresses T1, GPR40 (Homo sapiens, UniProt O14842).
T1 construct: host or cells: HEK293 (ChemiBrite cell line)
Nature of the assay: Promoter-luciferase assay to measure GPR40 activation (HEK293 cells stably transfected with GPR40 cDNA). Particulars: HEK293 cells stably transfected with GPR40, 5xSRE-luciferase; read-out: EC50 in Luciferase assay. It counts as cell-based. How it is done: GPR40 activation was measured in HEK293 cells stably transfected with GPR40 cDNA (ChemiBrite cell lines from Millipore, US). These cells were transiently transfected with a pGL2 (Promega Inc.) plasmid having a 5×SRE sequence, cloned 5′ of a luciferase gene along with a β-galactosidase plasmid as normalizing control. Briefly, 35000 cells/well were seeded in a 96 well plates. After overnight incubation at 37° C., the cells were washed with PBS and transfected with the 5×-SRE-Luciferase plasmid and the β-galactosidase plasmid. 6 h post transfection, media was removed and replaced with fresh media with different concentration of drugs and incubated for 16 more hours. The cells were then lysed in 50 μL of Glo-Lysis buffer (Promega) for 30 min at room temperature. The cells were then centrifuged and lysates were collected. Luciferase activity was measured by adding 100 μL of luciferase substrate (Promega) in 20 μL of lysate and measuring the luminescence in luminometer. The […] activity was also measured by adding 20 μL of lysates with 20 μL of β-galactosidase buffer (Promega) and monitoring the absorbance at 415 nm. Luciferase values were divided by β-galactosidase values to normalize transfection efficiency (Table 2)

T1 sequence (O14842 whole entry, species assumed): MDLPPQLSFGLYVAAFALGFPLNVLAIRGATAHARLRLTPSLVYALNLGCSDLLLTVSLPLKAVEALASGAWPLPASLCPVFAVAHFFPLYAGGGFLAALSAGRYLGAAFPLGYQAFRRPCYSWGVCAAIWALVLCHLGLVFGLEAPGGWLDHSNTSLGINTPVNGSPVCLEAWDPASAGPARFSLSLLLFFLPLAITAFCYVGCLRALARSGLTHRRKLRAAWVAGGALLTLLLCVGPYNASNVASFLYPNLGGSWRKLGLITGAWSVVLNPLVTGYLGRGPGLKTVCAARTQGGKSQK

With `CC#C[C@@H](CC(=O)O)c1ccc(OCc2cccc(CN3CC4CC(C3)O4)c2)cc1` [Compound 23, (3S)-3-(4-((3-(6-Oxa-3-azabicyclo[3.1.1]heptan-3-ylmethyl)benzyl)oxy)phenyl)hex-4-ynoic acid], the EC50 came out at 5.3 nM.

Consider `CC#C[C@@H](CC(=O)O)c1ccc(OCc2cccc(CN3CCc4sc(C(N)=O)cc4C3)c2)cc1` [Compound 40, (S)-3-(4-((3-((2-carbamoyl-6,7-dihydrothieno[3,2-c]pyridin-5(4H)-yl)methyl)benzyl)oxy)phenyl)hex-4-ynoic acid], for which the EC50 was 8 nM.

Consider `CC#C[C@@H](CC(=O)O)c1ccc(OCc2cccc(CN3CCc4nc(Cl)sc4C3)c2)cc1` [Compound 31, (S)-3-(4-((3-((2-Chloro-6,7-dihydrothiazolo[5,4-c]pyridin-5(4H)-yl)methyl)benzyl)oxy)phenyl)hex-4-ynoic acid], for which the EC50 worked out at 9.7 nM.

Take `CC#C[C@@H](CC(=O)O)c1ccc(OCc2cccc(CN3CCc4c(ccn4C(=O)OC(C)(C)C)C3)c2)cc1` [Compound 8, (S)-3-(4-((3-((1-(tert-butoxycarbonyl)-6,7-dihydro-1H-pyrrolo[3,2-c]pyridin-5(4H)-yl)methyl)benzyl)oxy)phenyl)hex-4-ynoic acid]: the EC50 came to 11.8 nM.

As for `CC#C[C@@H](CC(=O)O)c1ccc(OCc2cccc(CN3CCc4sc(C(=O)N(C)C)cc4C3)c2)cc1` [Compound 47, (S)-3-(4-((3-((2-(dimethylcarbamoyl)-6,7-dihydrothieno[3,2-c]pyridin-5(4H)-yl)methyl)benzyl)oxy)phenyl)hex-4-ynoic acid], the EC50 was 9 nM.

For the compound `CC#C[C@@H](CC(=O)O)c1ccc(OCc2cccc(CN3CCc4ccccc4C3)c2)cc1` [Compound 15, (S)-3-(4-((3-((3,4-dihydroisoquinolin-2(1H)-yl)methyl)benzyl)oxy)phenyl)hex-4-ynoic acid], the concentration giving a half-maximal response (EC50) turned out to be 4.6 nM.

On to `CC#C[C@@H](CC(=O)O)c1ccc(OCc2cccc(CN3CCc4sc(CC)cc4C3)c2)cc1` [Compound 71, (S)-3-(4-((3-((2-Ethyl-6,7-dihydrothieno[3,2-c]pyridin-5(4H)-yl)methyl)benzyl)oxy)phenyl)hex-4-ynoic acid], for which the EC50 is 0.4 nM.

Turning to `CC#C[C@@H](CC(=O)O)c1ccc(OCc2cccc(CN3CCc4sc(C=O)cc4C3)c2)cc1` [Compound 44, (S)-3-(4-((3-((2-formyl-6,7-dihydrothieno[3,2-c]pyridin-5(4H)-yl)methyl)benzyl)oxy)phenyl)hex-4-ynoic acid], the EC50 was 4.8 nM.

Consider `CC#C[C@@H](CC(=O)O)c1ccc(OCc2cccc(CN3CCc4sc(C(=O)NC5CC5)cc4C3)c2)cc1` [Compound 61, (S)-3-(4-((3-((2-(cyclopropylcarbamoyl)-6,7-dihydrothieno[3,2-c]pyridin-5(4H)-yl)methyl)benzyl)oxy)phenyl)hex-4-ynoic acid], for which the concentration for a half-maximal effect (EC50) came to 12.6 nM.

Regarding `CC#C[C@@H](CC(=O)O)c1ccc(OCc2cccc(CN3CCc4sc(NC(C)=O)cc4C3)c2)cc1` [Compound 63, (S)-3-(4-((3-((2-Aacetamido-6,7-dihydrothieno[3,2-c]pyridin-5(4H)-yl)methyl)benzyl)oxy)phenyl)hex-4-ynoic acid], the EC50 is 4.4 nM.

Take `CC#C[C@@H](CC(=O)O)c1ccc(OCc2cccc(CN3CCc4ncncc4C3)c2)cc1` [Compound 21, (S)-3-(4-((3-((7,8-Dihydropyrido[4,3-d]pyrimidin-6(5H)-yl)methyl)benzyl)oxy)phenyl)hex-4-ynoic acid]: the EC50 turned out to be 2.8 nM.

Turning to `CC#C[C@@H](CC(=O)O)c1ccc(OCc2cccc(CN3CCc4sc([N+](=O)[O-])cc4C3)c2)cc1` [Compound 65, (S)-3-(4-((3-((2-Nitro-6,7-dihydrothieno[3,2-c]pyridin-5(4H)-yl)methyl)benzyl)oxy)phenyl)hex-4-ynoic acid], the concentration for a half-maximal effect (EC50) amounted to 1.6 nM.
